These results are taken from ChEMBL document CHEMBL1140460, “Design, synthesis, and biological evaluation of triazolopiperazine-based beta-amino amides as potent, orally active dipeptidyl peptidase IV (DPP-4) inhibitors” (Bioorg Med Chem Lett, 2007).

Data set [1] has as its target Dipeptidyl peptidase 2 (Homo sapiens, UniProt Q9UHL4). Briefly: Inhibition of QPP.
Data set [2] has as its target Dipeptidyl peptidase 8 (Homo sapiens, UniProt Q6V1X1). Briefly: Inhibition of DPP8.
Data set [3] deals with Dipeptidyl peptidase 9 (Homo sapiens, UniProt Q86TI2). Briefly: Inhibition of DPP9.
Dipeptidyl peptidase 9, sequence (Q86TI2 whole entry): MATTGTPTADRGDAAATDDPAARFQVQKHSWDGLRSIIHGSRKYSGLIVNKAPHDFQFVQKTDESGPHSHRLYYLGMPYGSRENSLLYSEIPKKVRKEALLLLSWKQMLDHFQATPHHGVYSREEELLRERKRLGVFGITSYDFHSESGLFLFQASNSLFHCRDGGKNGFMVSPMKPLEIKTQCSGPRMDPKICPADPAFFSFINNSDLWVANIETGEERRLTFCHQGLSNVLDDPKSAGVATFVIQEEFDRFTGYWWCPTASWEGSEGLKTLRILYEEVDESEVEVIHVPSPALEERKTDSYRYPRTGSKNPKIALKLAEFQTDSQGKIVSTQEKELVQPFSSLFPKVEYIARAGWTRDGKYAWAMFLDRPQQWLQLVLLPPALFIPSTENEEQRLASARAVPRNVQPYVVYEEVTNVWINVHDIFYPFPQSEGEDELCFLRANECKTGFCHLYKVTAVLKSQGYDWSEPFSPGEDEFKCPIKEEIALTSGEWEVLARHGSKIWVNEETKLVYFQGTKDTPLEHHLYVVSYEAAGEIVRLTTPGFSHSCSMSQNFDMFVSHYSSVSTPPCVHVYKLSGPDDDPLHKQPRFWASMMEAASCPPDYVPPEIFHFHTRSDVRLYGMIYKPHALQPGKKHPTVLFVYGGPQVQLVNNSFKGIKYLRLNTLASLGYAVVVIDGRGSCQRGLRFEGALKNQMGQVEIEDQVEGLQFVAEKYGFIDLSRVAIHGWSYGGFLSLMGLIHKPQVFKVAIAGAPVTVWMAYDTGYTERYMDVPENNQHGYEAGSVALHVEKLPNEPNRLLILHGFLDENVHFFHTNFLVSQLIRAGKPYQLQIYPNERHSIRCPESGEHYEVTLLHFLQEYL
Data set [4] can be described thus: Plasma clearance in rat. Type of data set: ADME, organism-based.
Data set [5] in a line: (§1) Half life in rat. The data set is classed as ADME, organism-based. The note with it: in vivo.
Data set [6] in a line: Oral bioavailability in rat. Type of data set: ADME, organism-based. The following applies: in vivo.
The target of data set [7] is Dipeptidyl peptidase 4 (Homo sapiens, UniProt P27487).
Dipeptidyl peptidase 4, sequence (P27487 whole entry): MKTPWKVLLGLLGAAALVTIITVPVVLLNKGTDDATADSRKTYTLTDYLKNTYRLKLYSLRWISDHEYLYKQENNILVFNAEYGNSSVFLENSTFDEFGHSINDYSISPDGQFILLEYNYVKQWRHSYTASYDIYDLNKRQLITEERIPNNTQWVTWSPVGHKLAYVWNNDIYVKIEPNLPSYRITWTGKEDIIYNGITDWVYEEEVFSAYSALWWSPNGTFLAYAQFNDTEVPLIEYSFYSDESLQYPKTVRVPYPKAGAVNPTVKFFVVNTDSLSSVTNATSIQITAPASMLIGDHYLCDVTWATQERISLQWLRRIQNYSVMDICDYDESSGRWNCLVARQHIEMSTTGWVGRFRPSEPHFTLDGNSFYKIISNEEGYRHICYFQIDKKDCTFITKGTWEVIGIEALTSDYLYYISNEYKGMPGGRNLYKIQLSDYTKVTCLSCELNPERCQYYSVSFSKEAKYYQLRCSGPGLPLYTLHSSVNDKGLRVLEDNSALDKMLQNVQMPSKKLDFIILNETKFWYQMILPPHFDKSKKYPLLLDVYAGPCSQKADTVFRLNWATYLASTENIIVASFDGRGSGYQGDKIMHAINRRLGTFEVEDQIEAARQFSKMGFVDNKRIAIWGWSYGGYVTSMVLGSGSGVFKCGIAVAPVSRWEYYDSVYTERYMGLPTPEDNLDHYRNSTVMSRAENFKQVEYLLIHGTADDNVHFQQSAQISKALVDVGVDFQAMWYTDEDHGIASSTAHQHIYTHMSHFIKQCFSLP
The nature of data set [8]: Plasma clearance in dog. The data set is classed as ADME, organism-based, Canis lupus familiaris.
Data set [9] in a line: Plasma clearance in rhesus monkey. The data set is classed as ADME, organism-based, Macaca mulatta.
Data set [10] in a line: Half life in dog. Type of data set: ADME, organism-based, Canis lupus familiaris. The following applies: in vivo.
Data set [11] is described as follows: Half life in rhesus monkey. Type of data set: ADME, organism-based, Macaca mulatta. The following applies: in vivo.
The nature of data set [12]: Oral bioavailability in dog. The data set is classed as ADME, organism-based, Canis lupus familiaris. The following applies: in vivo.
A short description of data set [13]: Oral bioavailability in rhesus monkey. Type of data set: ADME, organism-based, Macaca mulatta. The following applies: in vivo.
Data set [14] concerns Mus musculus. Put plainly: Reduction of blood glucose excursion in lean mouse at 0.1 mg/kg by oral glucose tolerance test. Type of data set: functional. On the set-up: scale not given: the % may be the effect or the level left.
Data set [15] has as its system Mus musculus. Put plainly: Reduction of blood glucose excursion in lean mouse at 3.0 mg/kg by oral glucose tolerance test. The data set is classed as functional. On the set-up: scale not given: the % may be the effect or the level left.
Data set [16] has as its system Mus musculus. Briefly: Reduction of blood glucose excursion in lean mouse at 1.0 mg/kg by oral glucose tolerance test. The data set is classed as functional. On the set-up: scale not given: the % may be the effect or the level left.
The species named for data set [17] is Rattus norvegicus. Described as §1. The note with it: in vivo. Type of data set: ADME, organism-based.

A value given as a limit tells only on which side of the number the result lay.

What is called IC50 is the concentration needed to halve the response being measured. As usually defined, the clearance is the volume of plasma or blood freed of the substance per unit of time. As usually defined, the half-life is the time needed for the level to fall by half in the phase considered. As a reminder, the bioavailability is dose-corrected exposure relative to a reference, in per cent.

Dipeptidyl peptidase 8, sequence (Q6V1X1 whole entry): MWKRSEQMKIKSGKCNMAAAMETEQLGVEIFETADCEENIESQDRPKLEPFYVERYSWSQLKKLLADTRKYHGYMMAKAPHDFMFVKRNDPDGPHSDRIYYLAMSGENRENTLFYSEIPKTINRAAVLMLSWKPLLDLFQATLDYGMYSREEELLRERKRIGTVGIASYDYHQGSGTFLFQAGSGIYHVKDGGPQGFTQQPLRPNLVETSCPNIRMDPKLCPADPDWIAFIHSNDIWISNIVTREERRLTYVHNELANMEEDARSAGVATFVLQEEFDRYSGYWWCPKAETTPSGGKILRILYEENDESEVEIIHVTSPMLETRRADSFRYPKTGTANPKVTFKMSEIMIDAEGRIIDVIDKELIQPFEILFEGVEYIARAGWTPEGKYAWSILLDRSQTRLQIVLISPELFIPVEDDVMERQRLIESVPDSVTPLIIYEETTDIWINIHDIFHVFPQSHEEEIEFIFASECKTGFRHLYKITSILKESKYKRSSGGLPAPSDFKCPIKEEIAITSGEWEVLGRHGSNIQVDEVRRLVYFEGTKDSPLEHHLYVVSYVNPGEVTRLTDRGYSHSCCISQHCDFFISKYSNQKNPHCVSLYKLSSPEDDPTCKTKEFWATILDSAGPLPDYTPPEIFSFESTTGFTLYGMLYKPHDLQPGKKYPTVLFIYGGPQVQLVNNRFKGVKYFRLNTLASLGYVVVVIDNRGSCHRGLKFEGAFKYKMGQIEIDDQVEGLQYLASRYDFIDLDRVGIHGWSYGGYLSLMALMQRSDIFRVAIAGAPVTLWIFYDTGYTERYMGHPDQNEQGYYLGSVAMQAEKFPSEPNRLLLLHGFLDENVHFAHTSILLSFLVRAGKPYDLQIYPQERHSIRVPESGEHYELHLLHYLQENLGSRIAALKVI

Turning to `N[C@@H](CC(=O)N1CCn2nc(C3CC3)nc2C1)Cc1cc(F)c(F)cc1F`, the IC50 in [1], in data set [2] and in data set [3] was over 100 µM throughout.
`N[C@@H](CC(=O)N1CCn2nc(-c3ccccc3)nc2C1)Cc1cc(F)c(F)cc1F`: the IC50 in [3] was over 100 µM.
In turn, `N[C@@H](CC(=O)N1CCn2nc(C(F)(F)F)nc2[C@@H]1C(O)C1CC1)Cc1cc(F)c(F)cc1F` (some centres not stated) [listing 1 of 2 here] registered a 50% inhibitory concentration (IC50) in data set [3] of over 100 µM. In data set [4], this molecule showed a clearance of 91 mL/min/kg. For the same molecule, in data set [5], the half-life is 5.1 h. Further, the bioavailability in data set [6] was 51%.
With `N[C@@H](CC(=O)N1CCn2nc(C(F)(F)F)nc2[C@H]1Cn1cncn1)Cc1cc(F)c(F)cc1F`, the IC50 in data set [1] was 22 µM; in data set [2], over 100 µM; in [3] it was over 100 µM; in [7] it was 0.002 µM.
As to `C[C@@H]1c2nc(C(F)(F)F)nn2CCN1C(=O)C[C@H](N)Cc1cc(F)c(F)cc1F`, the IC50 is 25 µM in data set [1], over 100 µM in [2] and over 100 µM in data set [3]. The values for the clearance in data set [4], in data set [8] and in data set [9] were 68 mL/min/kg, 1 mL/min/kg and 16 mL/min/kg, respectively. The half-life in data set [5] is 4 h; in data set [10], 26 h; in data set [11], 7.7 h. The bioavailability in data set [6] is 74%; in data set [12] it was 67%; in data set [13] it was 65%. The results for the Activity in data set [14], in data set [15] and in data set [16] were 14%, 44% and 39%, respectively.
With `N[C@@H](CC(=O)N1CCn2nc(C(F)(F)F)nc2[C@@H]1C(F)C1CC1)Cc1cc(F)c(F)cc1F` (stereo in doubt; 34d), the results for the half-inhibitory concentration (IC50) in data set [1], in data set [2] and in [7] were 4.1 µM, over 100 µM and 0.011 µM, respectively.
Turning to `C[C@H]1c2nc(C(F)(F)F)nn2CCN1C(=O)C[C@H](N)Cc1cc(F)c(F)cc1F`, the IC50 in data set [1] is 72 µM; in data set [2], over 100 µM; in [3], over 100 µM.
On to `N[C@@H](CC(=O)N1CCn2c(nnc2C(F)(F)F)C1)Cc1cc(F)c(F)cc1F` [SITAGLIPTIN], for which the clearance stood at 60 mL/min/kg in [4], 6 mL/min/kg in [8] and 28 mL/min/kg in data set [9]. For the same molecule, in data set [17], the t1/2 amounted to 1.7 h. Also, the half-life in data set [10] was 4.9 h; in data set [11], 3.7 h. Also, the bioavailability in data set [12] was 100%; in data set [13] it was 68%.
`N[C@@H](CC(=O)N1CCn2nc(C(F)(F)F)nc2C1)Cc1cc(F)c(F)cc1F`: the IC50 in [3] was over 100 µM. Further, the clearance in data set [4] turned out to be 60 mL/min/kg. In addition, in data set [5], the half-life was 3.6 h. Further, in data set [6], the bioavailability worked out at 100%.
For `N[C@@H](CC(=O)N1CCn2nc(C(F)(F)F)nc2[C@@H]1C(O)C1CC1)Cc1cc(F)c(F)cc1F` (some centres not stated) [listing 2 of 2 here], in that order: over 100 µM, 97 mL/min/kg, 3.9 h and 63%.
Take `N[C@@H](CC(=O)N1CCn2nc(C(F)(F)F)nc2[C@H]1Cc1ccc(F)cc1)Cc1cc(F)c(F)cc1F`: in data set [4], the clearance is 76 mL/min/kg. Further, the half-life in data set [5] was 2.7 h. Also, the bioavailability in [6] stood at 32%.
For `N[C@@H](CC(=O)N1CCn2ncnc2C1)Cc1cc(F)c(F)cc1F`, the IC50 is over 100 µM in [1], over 100 µM in data set [2], over 100 µM in data set [3] and 0.1 µM in data set [7].
Consider `N[C@@H](CC(=O)N1CCn2nc(C(F)(F)F)nc2C1Cn1cncn1)Cc1cc(F)c(F)cc1F` (some centres not stated), for which the IC50 in [1] is 49 µM; in data set [2], over 100 µM; in [3] it was over 100 µM; in data set [7], 0.005 µM. Also, the clearance in data set [4] came out at 129 mL/min/kg. Also, the half-life in data set [5] was 2.8 h. The bioavailability in [6] was found to be 13%.
In the case of `N[C@@H](CC(=O)N1CCn2nc(C(F)(F)F)nc2C1Cn1ccnc1)Cc1cc(F)c(F)cc1F` (some centres not stated), the IC50 in data set [1] is 26 µM; in [2] it was over 100 µM. Also, the clearance in data set [4] is 97 mL/min/kg. The same molecule showed a half-life in data set [5] of 9 h. The molecule also returned a bioavailability in data set [6] of 7.1%.
For the molecule `N[C@@H](CC(=O)N1CCn2nc(C(F)(F)F)nc2C1Cn1cccn1)Cc1cc(F)c(F)cc1F` (some centres not stated), the results for the IC50 in data set [1], in [2] and in data set [3] were 9.6 µM, over 100 µM and over 100 µM, respectively. In addition, the clearance in data set [4] was 142 mL/min/kg. The molecule further had a half-life in [5] of 2.3 h. In [6], this molecule displayed a bioavailability of 62%.
As to `N[C@@H](CC(=O)N1CCn2nc(C(F)(F)F)nc2[C@@H]1C(F)C1CC1)Cc1cc(F)c(F)cc1F` (stereo in doubt; 34c), the IC50 was 5.77 µM in data set [1], over 100 µM in data set [2] and 0.018 µM in [7].
